# From patent publication US20120270237A9, “METHODS FOR THE IDENTIFICATION OF KINASE INTERACTING MOLECULES AND FOR THE PURIFICATION OF KINASE PROTEINS” (Cellzone AG, priority 2009, published 2012)
# Assays:
# Assay in all cases: Kinobeads competition binding, L-363 cell lysate
# Design in all cases: endogenous in cells
# Conditions in all cases: 10 μM free compound, L-363 lysate
# ALK2 = ALK2 (Homo sapiens, UniProt Q04771)
# Protocol: (§1) To one aliquot of cell lysate 10 μM of the free compound (FIG. 3, CZC31326) was added and allowed to bind to proteins in the lysate. Then the affinity matrix with the immobilized compound was added to capture proteins that were not interacting with the previously added free compound. Beads were separated from the lysate and bead bound proteins were eluted in SDS sample buffer and subsequently separated by SDS-Polyacrylamide gel electrophoresis (FIG. 8). Suitable gel bands were cut out and subjected to in-gel proteolytic digestion with trypsin. The second lysate aliquot was processed identically, however no free compound was added (DMSO solvent control). Peptides originating from samples 1 and 2 were labeled with iTRAQ reagents (iTRAQ 114 and iTRAQ 117) and the combined samples were analyzed with a nano-flow liquid chromatography system coupled online to a tandem mass spectrometer (LC-MS/MS) experiment followed by iTRAQ reporter ion quantification in the MS/MS spectra as described in Example 2.
# (§2) For this experiment the human plasma cell leukaemia line L-363 was used (German Collection of Microorganisms and Cell Cultures, DSMZ number ACC49, Braunschweig, Germany). Cells were treated for three hours with 20 μM of the proteasome inhibitor MG132 (Z-Leu-Leu-Leu-al, Sigma C2211) prior to cell harvesting.
# ARG = ARG (Homo sapiens, UniProt P42684)
# Protocol: as §1, §2
# CaMK2d = CaMK2d (Homo sapiens, UniProt Q13557)
# Protocol: as §1, §2
# CaMK2g = CaMK2g (Homo sapiens, UniProt Q13555)
# CaMK2g, sequence (Q13555 whole entry): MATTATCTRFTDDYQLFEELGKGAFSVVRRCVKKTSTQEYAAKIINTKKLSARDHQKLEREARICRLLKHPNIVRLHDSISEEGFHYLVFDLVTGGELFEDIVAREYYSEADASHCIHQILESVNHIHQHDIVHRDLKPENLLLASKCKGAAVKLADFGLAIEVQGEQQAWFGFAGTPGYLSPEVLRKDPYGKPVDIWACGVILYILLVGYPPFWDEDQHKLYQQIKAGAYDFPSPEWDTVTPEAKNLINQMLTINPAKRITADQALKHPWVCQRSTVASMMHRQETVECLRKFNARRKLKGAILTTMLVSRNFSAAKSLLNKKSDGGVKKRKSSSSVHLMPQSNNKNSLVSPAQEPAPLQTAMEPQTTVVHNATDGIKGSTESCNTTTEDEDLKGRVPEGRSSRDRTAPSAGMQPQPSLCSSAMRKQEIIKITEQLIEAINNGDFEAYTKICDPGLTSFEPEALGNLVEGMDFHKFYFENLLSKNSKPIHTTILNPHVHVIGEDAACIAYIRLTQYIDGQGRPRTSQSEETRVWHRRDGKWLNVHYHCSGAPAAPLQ
# Protocol: as §1, §2
# DNAPK = DNAPK (Homo sapiens, UniProt P78527)
# Protocol: as §1, §2
# Erk2 = Erk2 (Homo sapiens, UniProt P28482)
# Protocol: as §1, §2
# IRAK4 = molecular target: T1, IRAK4 (Homo sapiens, UniProt Q9NWZ3)
# T1 sequence (Q9NWZ3 1-460): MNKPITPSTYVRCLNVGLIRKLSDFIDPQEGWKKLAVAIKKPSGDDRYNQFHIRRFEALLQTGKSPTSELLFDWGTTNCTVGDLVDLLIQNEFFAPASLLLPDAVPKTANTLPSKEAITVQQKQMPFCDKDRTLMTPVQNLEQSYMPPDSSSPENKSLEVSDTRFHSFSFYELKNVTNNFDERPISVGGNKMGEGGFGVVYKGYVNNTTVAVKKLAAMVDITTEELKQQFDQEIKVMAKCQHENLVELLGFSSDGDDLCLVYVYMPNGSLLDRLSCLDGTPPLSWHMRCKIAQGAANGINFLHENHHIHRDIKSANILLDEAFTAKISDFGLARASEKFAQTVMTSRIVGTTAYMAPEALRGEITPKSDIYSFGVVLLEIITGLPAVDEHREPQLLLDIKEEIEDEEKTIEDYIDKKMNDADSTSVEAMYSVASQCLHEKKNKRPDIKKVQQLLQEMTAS
# Protocol: as §1, §2
# LOK = LOK (Homo sapiens, UniProt O94804)
# Protocol: as §1, §2
# MLK3 = MLK3 (Homo sapiens, UniProt Q16584)
# MLK3, sequence (Q16584 whole entry): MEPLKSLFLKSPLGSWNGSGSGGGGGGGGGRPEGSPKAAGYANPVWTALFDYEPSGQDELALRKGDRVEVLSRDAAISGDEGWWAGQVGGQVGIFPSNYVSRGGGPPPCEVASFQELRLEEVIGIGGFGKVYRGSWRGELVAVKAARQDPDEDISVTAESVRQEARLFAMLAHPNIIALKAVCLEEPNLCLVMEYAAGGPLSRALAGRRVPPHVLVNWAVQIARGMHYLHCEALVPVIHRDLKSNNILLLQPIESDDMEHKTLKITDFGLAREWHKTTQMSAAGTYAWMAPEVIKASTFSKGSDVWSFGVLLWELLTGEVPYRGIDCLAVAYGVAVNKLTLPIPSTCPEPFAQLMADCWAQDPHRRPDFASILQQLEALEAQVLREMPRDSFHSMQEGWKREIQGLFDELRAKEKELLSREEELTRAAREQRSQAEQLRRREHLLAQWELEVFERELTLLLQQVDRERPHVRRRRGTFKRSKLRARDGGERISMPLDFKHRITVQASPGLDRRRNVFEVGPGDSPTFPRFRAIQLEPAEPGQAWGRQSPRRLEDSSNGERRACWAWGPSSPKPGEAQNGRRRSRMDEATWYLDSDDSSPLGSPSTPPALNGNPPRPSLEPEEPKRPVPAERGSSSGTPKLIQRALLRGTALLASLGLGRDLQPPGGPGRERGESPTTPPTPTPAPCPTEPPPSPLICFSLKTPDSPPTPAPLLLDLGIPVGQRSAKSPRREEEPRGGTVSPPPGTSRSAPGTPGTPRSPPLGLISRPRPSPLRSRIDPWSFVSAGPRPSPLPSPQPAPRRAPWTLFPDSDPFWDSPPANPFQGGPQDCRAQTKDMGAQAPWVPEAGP
# Protocol: as §1, §2
# MSK2 = MSK2 (Homo sapiens, UniProt O75676)
# MSK2, sequence (O75676 whole entry): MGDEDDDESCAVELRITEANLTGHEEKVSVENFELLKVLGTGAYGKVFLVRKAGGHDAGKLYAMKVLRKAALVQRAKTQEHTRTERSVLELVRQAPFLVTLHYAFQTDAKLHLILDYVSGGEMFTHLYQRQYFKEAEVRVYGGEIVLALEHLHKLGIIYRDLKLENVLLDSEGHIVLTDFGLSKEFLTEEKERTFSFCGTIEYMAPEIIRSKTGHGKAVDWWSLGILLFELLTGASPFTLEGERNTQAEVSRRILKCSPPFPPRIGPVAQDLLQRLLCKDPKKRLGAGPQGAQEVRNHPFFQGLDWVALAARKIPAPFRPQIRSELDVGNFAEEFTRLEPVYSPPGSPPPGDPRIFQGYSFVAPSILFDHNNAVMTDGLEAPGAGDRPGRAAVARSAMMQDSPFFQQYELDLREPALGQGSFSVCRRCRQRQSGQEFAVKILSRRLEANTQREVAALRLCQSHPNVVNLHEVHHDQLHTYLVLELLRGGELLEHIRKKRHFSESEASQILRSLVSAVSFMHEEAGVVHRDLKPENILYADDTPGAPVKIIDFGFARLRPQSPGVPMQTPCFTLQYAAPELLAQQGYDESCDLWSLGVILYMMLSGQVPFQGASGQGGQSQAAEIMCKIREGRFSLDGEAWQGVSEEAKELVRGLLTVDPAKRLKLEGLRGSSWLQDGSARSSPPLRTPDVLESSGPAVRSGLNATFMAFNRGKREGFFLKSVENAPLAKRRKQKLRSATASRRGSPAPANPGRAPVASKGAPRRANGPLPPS
# Protocol: as §1, §2
# QIK = QIK (Homo sapiens, UniProt Q9H0K1)
# QIK, sequence (Q9H0K1 whole entry): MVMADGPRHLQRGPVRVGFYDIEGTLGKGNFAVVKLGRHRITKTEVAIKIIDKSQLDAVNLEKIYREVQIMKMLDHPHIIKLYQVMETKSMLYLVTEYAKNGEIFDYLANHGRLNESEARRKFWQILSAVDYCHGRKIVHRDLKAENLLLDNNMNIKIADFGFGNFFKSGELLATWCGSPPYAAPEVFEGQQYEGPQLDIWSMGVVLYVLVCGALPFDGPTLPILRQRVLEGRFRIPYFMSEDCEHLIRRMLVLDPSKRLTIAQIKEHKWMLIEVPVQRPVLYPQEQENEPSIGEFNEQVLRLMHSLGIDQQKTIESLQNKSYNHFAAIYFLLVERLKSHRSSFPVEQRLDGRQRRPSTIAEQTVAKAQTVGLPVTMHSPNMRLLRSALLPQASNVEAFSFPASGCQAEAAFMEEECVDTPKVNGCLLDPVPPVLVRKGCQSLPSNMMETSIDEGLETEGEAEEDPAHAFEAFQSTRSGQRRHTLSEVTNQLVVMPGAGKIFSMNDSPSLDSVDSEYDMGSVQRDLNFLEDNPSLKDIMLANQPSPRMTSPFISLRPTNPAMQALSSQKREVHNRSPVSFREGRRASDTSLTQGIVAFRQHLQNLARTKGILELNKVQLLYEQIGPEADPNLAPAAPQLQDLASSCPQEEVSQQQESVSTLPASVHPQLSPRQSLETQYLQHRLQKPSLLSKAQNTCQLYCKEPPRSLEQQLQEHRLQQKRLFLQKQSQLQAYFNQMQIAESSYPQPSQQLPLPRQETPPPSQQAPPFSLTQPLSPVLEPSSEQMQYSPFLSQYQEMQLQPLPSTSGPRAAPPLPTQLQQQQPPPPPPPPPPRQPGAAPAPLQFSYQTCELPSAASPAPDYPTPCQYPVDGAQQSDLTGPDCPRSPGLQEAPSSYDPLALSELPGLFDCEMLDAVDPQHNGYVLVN
# Protocol: as §1, §2
# RSK3 = RSK3 (Homo sapiens, UniProt Q15349)
# RSK3, sequence (Q15349 whole entry): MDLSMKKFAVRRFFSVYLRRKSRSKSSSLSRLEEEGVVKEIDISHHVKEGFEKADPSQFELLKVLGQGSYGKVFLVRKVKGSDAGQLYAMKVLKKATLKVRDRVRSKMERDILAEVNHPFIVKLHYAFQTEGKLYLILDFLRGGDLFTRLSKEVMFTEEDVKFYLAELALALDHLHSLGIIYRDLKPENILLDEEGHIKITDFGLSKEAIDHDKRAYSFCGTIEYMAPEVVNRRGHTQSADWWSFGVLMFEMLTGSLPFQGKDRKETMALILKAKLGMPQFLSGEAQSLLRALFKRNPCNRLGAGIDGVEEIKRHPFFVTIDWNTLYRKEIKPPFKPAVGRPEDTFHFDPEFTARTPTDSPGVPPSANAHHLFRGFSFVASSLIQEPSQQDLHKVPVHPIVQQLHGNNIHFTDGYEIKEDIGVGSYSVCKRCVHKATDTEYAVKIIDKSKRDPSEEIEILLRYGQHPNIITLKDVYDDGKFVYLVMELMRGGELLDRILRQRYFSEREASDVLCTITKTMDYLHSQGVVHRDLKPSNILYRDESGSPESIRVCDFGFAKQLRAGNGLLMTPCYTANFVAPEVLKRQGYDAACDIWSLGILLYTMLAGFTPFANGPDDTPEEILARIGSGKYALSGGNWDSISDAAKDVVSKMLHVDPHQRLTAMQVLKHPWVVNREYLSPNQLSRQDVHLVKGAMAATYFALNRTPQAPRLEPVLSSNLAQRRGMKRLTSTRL
# Protocol: as §1, §2
# TAO3 = molecular target: T2, TAO3 (Homo sapiens, UniProt Q9H2K8)
# T2 sequence (Q9H2K8 1-898): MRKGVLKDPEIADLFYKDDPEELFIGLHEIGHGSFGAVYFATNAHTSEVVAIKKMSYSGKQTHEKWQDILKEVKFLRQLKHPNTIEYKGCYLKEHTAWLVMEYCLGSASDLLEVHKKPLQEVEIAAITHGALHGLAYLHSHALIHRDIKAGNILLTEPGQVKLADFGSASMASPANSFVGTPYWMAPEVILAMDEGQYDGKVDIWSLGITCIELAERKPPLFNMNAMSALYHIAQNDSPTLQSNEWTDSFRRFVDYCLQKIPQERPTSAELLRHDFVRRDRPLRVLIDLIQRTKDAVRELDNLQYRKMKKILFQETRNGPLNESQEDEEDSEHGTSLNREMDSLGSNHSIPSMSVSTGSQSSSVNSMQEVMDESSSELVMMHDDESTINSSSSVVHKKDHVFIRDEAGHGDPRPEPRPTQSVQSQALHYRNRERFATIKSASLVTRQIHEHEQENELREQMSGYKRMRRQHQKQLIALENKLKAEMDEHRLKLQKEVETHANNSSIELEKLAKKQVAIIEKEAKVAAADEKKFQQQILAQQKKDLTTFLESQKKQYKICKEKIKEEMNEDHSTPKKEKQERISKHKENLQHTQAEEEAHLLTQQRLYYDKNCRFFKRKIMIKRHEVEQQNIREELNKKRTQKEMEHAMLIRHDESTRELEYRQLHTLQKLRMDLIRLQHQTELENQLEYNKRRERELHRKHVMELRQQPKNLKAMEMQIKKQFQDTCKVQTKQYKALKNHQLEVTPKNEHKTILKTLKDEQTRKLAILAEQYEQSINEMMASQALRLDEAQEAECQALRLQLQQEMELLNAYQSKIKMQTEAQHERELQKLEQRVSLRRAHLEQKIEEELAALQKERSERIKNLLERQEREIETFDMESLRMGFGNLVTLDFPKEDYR
# Protocol: as §1, §2
# TYK2 = TYK2 (Homo sapiens, UniProt P29597)
# Protocol: as §1, §2
# Wee1 = Wee1 (Homo sapiens, UniProt P30291)
# Wee1, sequence (P30291 whole entry): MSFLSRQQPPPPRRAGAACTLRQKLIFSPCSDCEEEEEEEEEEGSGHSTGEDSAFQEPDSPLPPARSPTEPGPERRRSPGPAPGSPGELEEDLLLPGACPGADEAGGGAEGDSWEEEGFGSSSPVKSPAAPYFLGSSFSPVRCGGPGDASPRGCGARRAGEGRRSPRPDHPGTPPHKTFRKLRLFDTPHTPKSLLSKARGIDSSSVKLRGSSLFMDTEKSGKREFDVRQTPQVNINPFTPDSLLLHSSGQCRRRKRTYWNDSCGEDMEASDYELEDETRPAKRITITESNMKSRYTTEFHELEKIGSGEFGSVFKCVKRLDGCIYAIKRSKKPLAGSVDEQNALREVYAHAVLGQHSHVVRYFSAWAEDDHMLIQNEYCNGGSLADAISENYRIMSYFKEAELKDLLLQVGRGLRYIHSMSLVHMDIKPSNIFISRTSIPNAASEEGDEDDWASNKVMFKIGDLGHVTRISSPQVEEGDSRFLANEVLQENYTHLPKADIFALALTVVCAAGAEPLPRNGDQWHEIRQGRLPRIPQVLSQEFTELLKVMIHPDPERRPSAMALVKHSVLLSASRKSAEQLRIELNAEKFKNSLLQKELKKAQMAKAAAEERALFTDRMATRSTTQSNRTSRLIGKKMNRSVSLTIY
# Protocol: as §1, §2
# ALK2, sequence (Q04771 21-509): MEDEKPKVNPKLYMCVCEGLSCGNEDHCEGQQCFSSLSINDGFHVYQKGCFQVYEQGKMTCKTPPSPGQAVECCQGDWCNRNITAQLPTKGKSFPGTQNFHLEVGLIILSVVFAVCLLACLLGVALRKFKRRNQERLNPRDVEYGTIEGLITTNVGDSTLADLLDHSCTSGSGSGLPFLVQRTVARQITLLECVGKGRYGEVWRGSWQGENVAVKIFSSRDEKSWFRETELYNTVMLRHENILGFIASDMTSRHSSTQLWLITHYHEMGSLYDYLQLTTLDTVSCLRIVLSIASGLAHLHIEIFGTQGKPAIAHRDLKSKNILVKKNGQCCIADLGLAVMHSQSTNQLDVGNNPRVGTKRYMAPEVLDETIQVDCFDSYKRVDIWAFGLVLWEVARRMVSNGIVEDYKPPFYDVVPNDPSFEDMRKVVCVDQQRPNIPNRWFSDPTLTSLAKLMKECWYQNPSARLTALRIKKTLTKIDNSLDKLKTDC
structure (smiles),measurement,setting,value
"CS(=O)(=O)Nc1ccccc1Nc1nc(Nc2cccc(OCCN)c2)ncc1Cl [CZC31326, N-(2-(2-(3-(2-aminoethoxy)phenylamino)-5-chloropyrimidin-4-ylamino)phenyl)methanesulfonamide]",inhibition at 10 µM,ALK2,95.7%
same,inhibition at 10 µM,ARG,95.8%
same,inhibition at 10 µM,CaMK2d,78%
same,inhibition at 10 µM,CaMK2g,75.9%
same,inhibition at 10 µM,DNAPK,84%
same,inhibition at 10 µM,Erk2,74.4%
same,Competition %,IRAK4,97.4%
same,Competition %,LOK,86.9%
same,Competition %,MLK3,97.5%
same,inhibition at 10 µM,MSK2,94.2%
same,inhibition at 10 µM,QIK,96.5%
same,inhibition at 10 µM,RSK3,96.9%
same,inhibition at 10 µM,TAO3,94.7%
same,Competition %,TYK2,96.9%
same,inhibition at 10 µM,Wee1,96.4%
